Assay [1] has as its system CD45RA^+CD25^−CD4^+ T cell line. The experiment in a line: Mixed lymphocyte reaction with trans-well, rapamycin-cultured CD45RA^+CD25^−CD4^+ T cell line. The assay is classed as cell-based, human. Particulars: rapamycin 20 nM from day 40. The procedure: (§1) CD45RA^+CD25^+CD4^+ T cells or CD45RA^+CD25^−CD4^+ T cells in human peripheral blood separated in the same manner as Example 1 (5×10̂4 cells/well) were stimulated with anti-human CD3 and CD28 conjugate beads in a ratio of 4 beads per cell in a 96-well round-bottomed culture plate containing 200 μl per well of a proliferation medium (AlyS505N (produced by Cell Science & Technology Institute) supplemented with 2% human AB serum) in the presence of human IL-2 (1000 U/ml, produced by Cell Science & Technology Institute). Rapamycin (20 nM, produced by Sigma) was added to the medium 40 days after the start of cultivation. Every 3 to 4 days, half of the medium was replaced with a fresh proliferation medium containing IL-2. If necessary, the cells were separated and repeatedly re-stimulated with anti-CD3/CD28 antibody conjugate beads every 10 to 14 days. Fifty days after the start of cultivation, the cells were collected and used for functional assay.
(§2) Total CD4^+ T cells in peripheral blood were isolated in the same manner as Example 1. […] The culture product was collected, and [3H] thymidine uptake was measured using 1450 Microbeta TriLux (Wallac).

Assay [2] relates to mouse CD4^+ T. Particulars: cited from earlier work.
The test system of assay [3] is CD45RA^+CD25^+CD4^+ T cell line. The experiment in a line: Suppression assay ([^3H] thymidine uptake) of the rapamycin-cultured CD45RA^+CD25^+CD4^+ T cell line. The assay is classed as cell-based, human. Particulars: then 2 days without rapamycin. The procedure:
as §1, with “cells” for “cells in human peripheral blood separated in the same manner as Example 1”, “cells/well) separated as described above” for “cells/well)”, “added as appropriate.” for “added to the medium 40 days after the start of cultivation.”, “antibody conjugated” for “antibody conjugate”, “days. […]” for “days. Fifty days after the start of cultivation, the cells were collected and used for functional assay.”
The indicated number of CD45RA^+CD25^+CD4^+ T cells just isolated from human peripheral blood, expanded CD45RA^+CD25^+CD4^+ T cell lines, or expanded CD45RA^+CD25^−CD4^+ T cell line, alone or along with self responder CD4^+ T cells (5×10̂4 cells/well), were stimulated with radiated (40 Gy) allogenic PBMC (1×10̂5 cells/well) in a round-bottomed 96-well microplate containing a proliferation medium. […] Subsequently, the cells were recovered, and [^3H] thymidine uptake was measured using 1450 Microbeta TriLux (Wallac).

Assay [4] has the same test system. The experiment in a line: Mixed lymphocyte reaction with trans-well, rapamycin-cultured CD45RA^+CD25^+CD4^+ T cell line. Type of assay: cell-based, human. Particulars: rapamycin 20 nM from day 40. As to the method: as §1, §2
The test system of assay [5] is CD45RA^+CD25^−CD4^+ T cells. The assay can be described thus: FACS phenotype analysis of the T cell line from CD45RA^+CD25^−CD4^+ T cells cultured with rapamycin. The note with it: rapamycin 20 nM from day 40, collected day 50. Type of assay: cell-based, human. The procedure:
PBMC derived from the subjects, or expanded T cell line were incubated with various antibodies for 30 min at 4° C. in the dark, washed, and analyzed using a BD FACSAria cell sorter and a FACSDiVA software (Becton Dickinson). The antibodies used were perCP-conjugated anti-CD4 mAb, biotin-conjugated anti-CD25 mAb, FITC-conjugated anti-CD45RA mAb, PE-conjugated anti-CD45RB mAb, anti-CD45RO mAb, anti-CD62L mAb, anti-CD38 mAb, anti-GITR mAb, and anti-TNFRII mAb. For intracellular staining with CTLA-4, the cells were subjected to cell surface staining, fixation, and permeabilization with Cytofix/Cytoperm solution (Becton Dickinson), and then intracellularly stained with PE-conjugated anti-CTLA-4.
as §1, with “the medium 0 or 40 days” for “the medium 40 days”, “used for FACS analysis.” for “used for functional assay.”
Expanded T cell lines were incubated with various antibodies for 30 minutes at 4° C. in the dark, washed, and analyzed using BD FACSAria cell sorter and FACSDiVA software (Becton Dickinson). The antibodies and staining conditions used were the same as Example 1.

For assay [6] the following is noted: used alone or in combination with picibanil; cited from earlier work.
Assay [7] deals with experimental allergic encephalomyelitis model. The note with it: model of multiple sclerosis; cited from earlier work.
Setting [8] is: conditions that allow cell contact.
Where [9] appears, read: contact blocked with the trans-well.
Setting [10] is: stimulated in the presence of rapamycin.

The text below walks through data of patent US20090246212A1, “DEVELOPMENT OF METHOD FOR SCREENING FOR DRUG CAPABLE OF IMPROVING PRODUCTION OF REGULATORY T CELLS AND METHOD FOR PRODUCING REGULATORY T CELLS USING IMMUNOSUPPRESSIVE MACROLIDE ANTIBIOTIC” (KYOTO UNIVERSITY, priority 2005, published 2009).

For the compound `CO[C@H]1C[C@@H]2CC[C@@H](C)[C@@](O)(O2)C(=O)C(=O)N2CCCC[C@H]2C(=O)O[C@H]([C@H](C)C[C@@H]2CC[C@@H](O)[C@H](OC)C2)CC(=O)[C@H](C)/C=C(\C)[C@@H](O)[C@@H](OC)C(=O)[C@H](C)C[C@H](C)/C=C/C=C/C=C/1C` [rapamycin], the “T cell line's effect on proliferation of total CD4^+ T cells” value in assay [1] (setting [8]) is listed as “strongly suppressed”. The “suppression of the proliferation of total CD4^+ T cells by the T cell line” value in assay [1] (setting [9]) was “continued to suppress”. For the same compound, the “CD4^+CD25^+FOXP3^+ regulatory T cells” value in assay [2] (mouse CD4^+ T stimulated with an antigen in the presence of rapamycin) is “expanded selectively”. Moreover, in assay [2] (setting [10]), the “expression of FOXP3 in CD4^+CD25^− T cells” value is listed as “did not enhance”, the “proliferation of isolated CD4^+CD25^+ T cells” value is listed as “proliferated vigorously”, the “suppressive function of the T cell population produced from CD4^+CD25^+ T cells” value is reported as “having suppressive function” and the “suppressive function of the T cell population produced from CD4^+CD25^− T cells” value is reported as “without suppressive function”. Also, in assay [3] (rapamycin added day 7 or day 39, collected 50 days after start), the “T cell line's effect on proliferation of CD4^+ T cells in response to alloantigen-presenting cells” value is “strongly suppressed”. Moreover, in assay [3] (rapamycin from day 0, 50 days culture), the “T cell line's effect on proliferation of CD4^+ T cells in response to alloantigen-presenting cells” value is “strongly suppressed”. Also, the “T cell line's effect on proliferation of total CD4^+ T cells” value in assay [4] (setting [8]) is “strongly suppressed”. Also, the “suppression of the proliferation of total CD4^+ T cells by the T cell line” value in assay [4] (setting [9]) is “interrupted”. In assay [5], the “CD25 expression relative to CD45RA^−CD25^high+CD4^+ T cells in peripheral blood” value is on record as “about ⅕”, the “CD45RA expression intensity relative to CD45RA^+CD25^−CD4^+ T cells at the start of cultivation” value is on record as “about 1 time”, the “CD45RO phenotype of the T cell line” value was “negative” and the “CD62L expression relative to CD45RA^−CD25^high+CD4^+ T cells in peripheral blood” value was “about ⅓”. Also, the “GITR / CTLA4 / CD45RB phenotype of the T cell line” value in assay [5] is listed as “GITR^+CTLA4^+CD45RB^high+”. Moreover, in assay [6], the antitumor activity entry was “possess antitumor activity”. Further, the “efficacy in experimental allergic encephalomyelitis model” value in assay [7] is reported as “effective”.
